Source: patent US7846946B2, “Heteroatom-linked substituted piperidines and derivatives thereof useful as histamine H3 antagonists” (Schering Plough Corporation, priority 2005, dated 2010)

Assays:
[1] = target: T1, H3 receptors (guinea pig brain) (Cavia porcellus, UniProt Q9JI35); assay: H3-receptor binding assay, guinea pig receptor; settings: radioligand [3H]R-α-methyl histamine or [3H]Nα-methyl histamine
T1 construct: The brain tissue was homogenized with a solution of 50 mM Tris, pH 7.5; from tissue; host or cells: guinea pig brain membranes
Description: (§1) General Procedure for H3-Receptor Binding Assay
(§2) The source of the H3 receptors in this experiment was guinea pig brain. Alternatively, the source of H3 receptors was recombinant human receptor, expressed in HEK-293 (human embryonic kidney) cells.
The animals weighed 400-600 g. The brain tissue was homogenized with a solution of 50 mM Tris, pH 7.5. The final concentration of tissue in the homogenization buffer was 10% w/v. The homogenates were centrifuged at 1,000×g for 10 min. in order to remove clumps of tissue and debris. The resulting supernatants were then centrifuged at 50,000×g for 20 min. in order to sediment the membranes, which were next washed three times in homogenization buffer (50,000×g for 20 min. each). The membranes were frozen and stored at −70° C. until needed.
All compounds to be tested were dissolved in DMSO and then diluted into the binding buffer (50 mM Tris, pH 7.5) such that the final concentration was 2 μg/ml with 0.1% DMSO. Membranes were then added (400 μg of protein, 5 μg in the case of recombinant human receptor) to the reaction tubes. […] Bound ligand was separated from unbound ligand by filtration, and the amount of radioactive ligand bound to the membranes was quantitated by liquid scintillation spectrometry. […]

[2] = target: T2, recombinant human H3 receptor, expressed in HEK-293 cells (Homo sapiens, UniProt Q9Y5N1); assay: H3-receptor binding assay, recombinant human receptor; settings: recombinant human receptor assay (HEK-293)
T2 construct: expressed in transfected cells; host or cells: HEK-293 (human embryonic kidney) cells
Description: as §1, §2
All compounds to be tested were dissolved in DMSO and then diluted into the binding buffer (50 mM Tris, pH 7.5) such that the final concentration was 2 μg/ml with 0.1% DMSO. Membranes were then added (400 μg of protein, 5 μg in the case of recombinant human receptor) to the reaction tubes. The reaction was started by the addition of 3 nM [^3H]R-α-methyl histamine (8.8 Ci/mmol) or 3 nM [^3H]Na^α-methyl histamine (80 Ci/mmol) and continued under incubation at 30° C. for 30 min. Bound ligand was separated from unbound ligand by filtration, and the amount of radioactive ligand bound to the membranes was quantitated by liquid scintillation spectrometry. All incubations were performed in duplicate and the standard error was always less than 10%. Compounds that inhibited more than 70% of the specific binding of radioactive ligand to the receptor were serially diluted to determine a Ki (nM).

T1 sequence (Q9JI35 whole entry): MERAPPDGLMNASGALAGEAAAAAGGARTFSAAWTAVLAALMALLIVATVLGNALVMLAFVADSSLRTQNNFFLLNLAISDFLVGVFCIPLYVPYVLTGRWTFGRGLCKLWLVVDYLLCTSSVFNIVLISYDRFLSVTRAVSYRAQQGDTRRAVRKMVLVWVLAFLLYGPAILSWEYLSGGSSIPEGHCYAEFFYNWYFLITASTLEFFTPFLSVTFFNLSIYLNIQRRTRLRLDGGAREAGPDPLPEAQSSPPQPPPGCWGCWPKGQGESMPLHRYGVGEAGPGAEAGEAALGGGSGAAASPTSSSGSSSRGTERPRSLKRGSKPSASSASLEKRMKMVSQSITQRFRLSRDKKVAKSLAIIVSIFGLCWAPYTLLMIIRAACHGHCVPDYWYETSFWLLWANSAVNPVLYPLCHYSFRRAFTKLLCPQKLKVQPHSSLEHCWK
T2 sequence (Q9Y5N1 whole entry): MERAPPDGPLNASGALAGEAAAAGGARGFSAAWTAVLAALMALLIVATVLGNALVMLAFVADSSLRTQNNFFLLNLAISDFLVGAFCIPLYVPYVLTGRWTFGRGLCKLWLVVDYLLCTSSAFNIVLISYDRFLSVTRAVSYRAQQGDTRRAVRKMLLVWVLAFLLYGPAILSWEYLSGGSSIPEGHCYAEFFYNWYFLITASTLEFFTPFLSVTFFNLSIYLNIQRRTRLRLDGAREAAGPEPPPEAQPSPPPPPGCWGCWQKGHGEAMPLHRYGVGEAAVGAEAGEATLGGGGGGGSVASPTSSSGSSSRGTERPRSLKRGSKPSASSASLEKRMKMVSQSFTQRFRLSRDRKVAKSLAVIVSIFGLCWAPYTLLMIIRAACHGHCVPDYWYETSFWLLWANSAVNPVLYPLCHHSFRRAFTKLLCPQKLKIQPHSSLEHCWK

SMILES | Ki [1] | Ki [2]
Cc1cc(C(=O)NCc2cccnc2NC2CCN(C(=O)C3CCN(Cc4ccnc(N)c4)CC3)CC2)no1 [Example 11] | 200 pM | 
Nc1cc(CN2CCC(C(=O)N3CCC(NCc4ccc(F)cc4F)CC3)CC2)ccn1 [Example 256] |  | 700 pM
